Data on nine compounds can be found in patent publication EP1090634A1, “Agents for reducing cholesterol and lipid uptake” (Hauser, Helmut, priority 1999, dated 2001).

The test deals with micellar dispersion consisting of 5 mM taurocholate, 0.6 mM oleic acid and 0.1 mM radiolabeled cholesterol. The test is described as follows: In vitro precipitation of cholesterol-carrying bile salt micelles (radioactivity in supernatant after centrifugation; turbidity at 500 nm). As to conditions: for precipitation: at the amount calculated for charge equivalence. As to the method: In order to determine the efficiency of specific cations, an in vitro test was used in which micelles comprising radio labeled cholesterol (cholesterol and micelles were produced according to known methods, see below) were generated. To a predetermined amount of such micelles, the respective precipitant was added in portions, and the precipitation formed upon addition of specific amounts of precipitant measured by two methods, namely by light scattering and by determination of the radioactivity in the supernatant after centrifugation.
A micellar dispersion consisting of 5 mM taurocholate, 0.6 mM oleic acid and 0.1 mM radiolabeled cholesterol was prepared as described before (Schulthess et al., J. Lipid Res. 37, 2405-19 (1996)) using Mg- and Ca-free phosphate-buffered saline (PBS) from Life Technologies, Basel, Switzerland. This stock solution was diluted by adding various amounts of precipitant in PBS, and PBS was added to a final volume of 1 ml. The mixture was shortly vortexed and incubated at room temperature for about 5 min before measuring its optical density (turbidity) at 500 nm. Precipitation (in %) was determined as follows: an aliquot of 200 µl of the incubation mixture was centrifuged for 3 min. at 100'000 g and the radioactivity of 100 µl supernatant was determined in a liquid scintillation counter. The radioactivity of 100 µl of the original mixture was also determined without centrifugation. The precipitation was determined as precipitation (%) = 100 [1-([…])] [formula] • A = radioactivity in supernatant without centrifugation • B = radioactivity in supernatant after centrifugation As a control: the precipitation (%) is determined in the absence of precipitant and a value of precipitation (%) = 2 ± 1 is obtained.

[1] abbreviates: charge ratio (taurocholate/precipitant) 0.25, PBS.
[2] abbreviates: charge ratio (taurocholate/precipitant) 1, PBS.
[3] abbreviates: charge ratio (taurocholate/precipitant) 0.2, in PBS.
Setting [4] is: charge ratio (taurocholate/precipitant) 5, in PBS.
Where [5] appears, read: charge ratio (taurocholate/precipitant) 0.1, PBS.
Where [6] appears, read: charge ratio (taurocholate/precipitant) 0.165, PBS.
Setting [7] is: charge ratio (taurocholate/precipitant) 1, in 50 mM Tris-HCl, pH=7.4.
The mark [8] stands for this setting: charge ratio (taurocholate/precipitant) 2, in 50 mM Tris-HCl, pH=7.4.
Where [9] appears, read: charge ratio (taurocholate/precipitant) 0.5, PBS.
The mark [10] stands for this setting: charge ratio (taurocholate/precipitant) 2, PBS.
[11] abbreviates: charge ratio (taurocholate/precipitant) 0.3, in 10 mM Arg and 10 mM Lys.
Where [12] appears, read: charge ratio (taurocholate/precipitant) 0.3 ± 0.1, PBS.
Where [13] appears, read: charge ratio (taurocholate/precipitant) 0.6, in 10 mM Arg and 10 mM Lys.
The mark [14] stands for this setting: charge ratio (taurocholate/precipitant) 1.2 ± 0.5, PBS.
Setting [15] is: charge ratio (taurocholate/precipitant) 3, PBS.
[16] abbreviates: charge ratio (taurocholate/precipitant) 1.4 ± 0.6, PBS.

Regarding `NCCCC[C@H](N)C(=O)O` [Lysine], under setting [1], the “Precipitation (%)” value worked out at 0% and the “Turbidity (OD 500 nm)” value stood at 0 OD 500 nm. Besides, under setting [2], the “Precipitation (%)” value worked out at 0% and the “Turbidity (OD 500 nm)” value is 0 OD 500 nm.

Consider Mg^2+, for which, under setting [3], the “Precipitation (%)” value is listed as 0% and the “Turbidity (OD 500 nm)” value is given as 0 OD 500 nm. Under setting [4], the “Precipitation (%)” value is on record as 0% and the “Turbidity (OD 500 nm)” value turned out to be 0 OD 500 nm.

Take `NCCCCCCN` [1,6 Hexanediamine]: under setting [5], the “Precipitation (%)” value worked out at 0% and the “Turbidity (OD 500 nm)” value was 0 OD 500 nm. Besides, under setting [6], the “Precipitation (%)” value worked out at 0% and the “Turbidity (OD 500 nm)” value is listed as 0 OD 500 nm.

As to Ca^2+, the “Precipitation (%)” value (charge ratio (taurocholate/precipitant) 0.2, in 50 mM Tris-HCl, pH=7.4) is 0%; the “Precipitation (%)” value under setting [3] was found to be 100%; the “Precipitation (%)” value under setting [7] came to 0%; the “Precipitation (%)” value under setting [8] is given as 0%. Moreover, the “Turbidity (OD 500 nm)” value (charge ratio (taurocholate/precipitant) 0.2, in 50 mM Tris-HCl, pH=7.4, maximal turbidity observed) is listed as 0.23 ± 0.06 (max) OD 500 nm; the “Turbidity (OD 500 nm)” value (charge ratio (taurocholate/precipitant) 0.2, in PBS, maximal turbidity observed) is on record as 0.25 ± 0.05 (max) OD 500 nm; the “Turbidity (OD 500 nm)” value under setting [7] came to 0.12 ± 0.03 OD 500 nm; the “Turbidity (OD 500 nm)” value under setting [8] is 0.13 ± 0.03 OD 500 nm.

Take `NCCCCCCCCCCCCN` [1,12 Diaminododecane]: the “Precipitation (%)” value is, setting by setting: (charge ratio (taurocholate/precipitant) 0.125, PBS) 100%; under setting [9], 65 ± 5%; under setting [2], 17 ± 4%; under setting [10], 13 ± 4%. Besides, the “Turbidity (OD 500 nm)” value is, setting by setting: (charge ratio (taurocholate/precipitant) 0.125, PBS, maximal turbidity observed) 0.4 ± 0.05 (max) OD 500 nm; under setting [9], 0.02 ± 0.01 OD 500 nm; under setting [2], 0.01 ± 0.005 OD 500 nm; under setting [10], 0.01 ± 0.005 OD 500 nm.

Take Polylysine [Polylysine Mr = 21600]: for the setting “Figure 2, equivalence point: poly K = 0.0061 mM”, the precipitation is listed as 100%. Further, the “Precipitation (%)” value under setting [11] was 100%, the “Precipitation (%)” value under setting [12] amounted to 100%, the “Precipitation (%)” value under setting [13] is 100% and the “Precipitation (%)” value under setting [14] is 100%. Besides, the “Turbidity (OD 500 nm)” value is, setting by setting: under setting [11], 1.6 ± 0.2 OD 500 nm; under setting [12], 0.4 ± 0.03 OD 500 nm; under setting [13], 1.3 ± 0.1 OD 500 nm; under setting [14], 0.13 ± 0.05 OD 500 nm.

Consider `NCCCCCCCCCCN` [1,10 Diaminodecane], for which the “Precipitation (%)” value was found to be 0% under setting [9], 0% under setting [2] and 0% under setting [15]. Besides, the “Turbidity (OD 500 nm)” value came to 0 OD 500 nm under setting [9], 0 OD 500 nm under setting [2] and 0 OD 500 nm under setting [15].

Take Polylysine [Polylysine Mr = 2300]: the precipitation (Figure 3, equivalence point: poly K = 0.056 mM) is on record as 100%. In addition, the “Precipitation (%)” value (charge ratio (taurocholate/precipitant) 0.5 ± 0.1, PBS) came to 100% and the “Precipitation (%)” value under setting [16] stood at 100%. The “Turbidity (OD 500 nm)” value reads like this: (charge ratio (taurocholate/precipitant) 0.5 ± 0.1, PBS, maximal turbidity observed) 0.9 ± 0.1 (max) OD 500 nm; under setting [16], 0.6 ± 0.2 OD 500 nm.

For the compound `N=C(N)NCCC[C@H](N)C(=O)O` [Arginine], under setting [1], the “Precipitation (%)” value is 0% and the “Turbidity (OD 500 nm)” value is given as 0 OD 500 nm. Under setting [2], the “Precipitation (%)” value was 0% and the “Turbidity (OD 500 nm)” value turned out to be 0 OD 500 nm.
